Laboratory results published in patent US10597388B2, “Pyridazinone herbicides” (FMC CORPORATION, priority 2014, dated 2020).

How the values were obtained:
Format in all cases: in vivo
[1] = system: ducksalad (Heteranthera limosa); assay: Test B flooded paddy test; conditions: 250 g ai/ha, Flood; visual rating on scale of 0 to 100 where 0 is no effect and 100 is complete control; 13 to 15 d after treatment
Method in brief: (§1)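 Plants grown to the 2-leaf stage. At treatment, pots were flooded to 3 cm above the soil, compound was applied directly to the paddy water, and that depth was held throughout. After 13 to 15 d in the greenhouse, response was rated visually against controls on a 0 (no effect) to 100 (complete control) scale.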

[2] = system: sedge, umbrella (small-flower umbrella sedge, Cyperus difformis); assay: Test B flooded paddy test; conditions: 250 g ai/ha, Flood; visual rating on scale of 0 to 100 where 0 is no effect and 100 is complete control; 13 to 15 d after treatment
Method in brief: as §1

[3] = system: barnyardgrass (Echinochloa crus-galli); assay: Test B flooded paddy test; conditions: 250 g ai/ha, Flood; visual rating on scale of 0 to 100 where 0 is no effect and 100 is complete control; 13 to 15 d after treatment
Method in brief: as §1

rice (Oryza sativa) = assay: Test B flooded paddy test; conditions: 250 g ai/ha, Flood; visual rating on scale of 0 to 100 where 0 is no effect and 100 is complete control; 13 to 15 d after treatment
Method in brief: as §1

[4] = system: blackgrass (Alopecurus myosuroides); assay: Test A greenhouse herbicide test, postemergence
Method in brief: (§2)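 Pot-grown plants (loam soil/sand blend), 2–10 cm tall at the one- to two-leaf stage, received postemergence sprays of formulated test chemical. After about 10 d in the greenhouse, injury was rated visually against untreated controls on a 0 (no effect) to 100 (complete control) scale.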

[5] = system: galium (catchweed bedstraw, Galium aparine); assay: Test A greenhouse herbicide test, postemergence
Method in brief: as §2

[6] = system: ryegrass, Italian (Italian ryegrass, Lolium multiflorum); assay: Test A greenhouse herbicide test, pre- and postemergence
Method in brief: (§3)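 Seeds in loam–sand blend received a preemergence directed soil spray; plants at 2–10 cm, one- to two-leaf stage, received postemergence sprays. Compounds in a non-phytotoxic solvent with surfactant. After about 10 d in a greenhouse, injury rated visually versus untreated controls on a 0–100 scale (100 = complete control).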

kochia (Kochia scoparia) = assay: as above
Method in brief: as §3

[7] = system: barnyardgrass (Echinochloa crus-galli); assay: as above
Method in brief: as §3

[8] = system: wheat (Triticum aestivum); assay: as above; conditions: Postemergence
Method in brief: as §3

[9] = system: pigweed (Amaranthus retroflexus); assay: as above
Method in brief: as §3

corn (Zea mays) = assay: as above; conditions: Postemergence
Method in brief: as §3

[10] = system: ragweed (common ragweed, Ambrosia elatior); assay: as above
Method in brief: as §3

[11] = system: foxtail, giant (giant foxtail, Setaria faberii); assay: as above
Method in brief: as §3

[12] = 125 g ai/ha, 0 to 100 scale where 0 is no effect and 100 is complete control
[13] = 500 g ai/ha, visual rating after approx. 10 d, 0 to 100 scale (0 no effect, 100 complete control)
[14] = Postemergence, 125 g ai/ha, 0 to 100 scale where 0 is no effect and 100 is complete control
[15] = Postemergence, 500 g ai/ha, visual rating after approx. 10 d, 0 to 100 scale (0 no effect, 100 complete control)
[16] = Preemergence, 125 g ai/ha, 0 to 100 scale where 0 is no effect and 100 is complete control
[17] = Preemergence, 500 g ai/ha, 0 to 100 scale where 0 is no effect and 100 is complete control

Row | Compound | Plant response rating, Ducksalad [1] | Plant response rating, Sedge, Umbrella [2] | Plant response rating, Barnyardgrass [3] | Plant response rating, Rice (rice (Oryza sativa)) | Plant response rating, Blackgrass [4, 12] | Plant response rating, Blackgrass [4, 13] | Plant response rating, Galium [5, 12] | Plant response rating, Galium [5, 13] | Plant response rating, Ryegrass, Italian [6, 14] | Plant response rating, Ryegrass, Italian [6, 15] | Ryegrass, Italian plant response rating [6, 16] | Plant response rating, Ryegrass, Italian [6, 17] | Plant response rating, Kochia (kochia (Kochia scoparia); [14]) | Plant response rating, Kochia (kochia (Kochia scoparia); [15]) | Kochia plant response rating (kochia (Kochia scoparia); [16]) | Plant response rating, Kochia (kochia (Kochia scoparia); [17]) | Plant response rating, Barnyardgrass [7, 14] | Plant response rating, Barnyardgrass [7, 15] | Barnyardgrass plant response rating [7, 16] | Plant response rating, Barnyardgrass [7, 17] | also measured
1 | CCc1nn(C)c(=O)c(-c2c(C)oc3ccccc23)c1O [Compound 117] | 0 | 0 | 0 | 0 | 0 | 0 | 0 | 0 | 0 | 0 | 0 | 0 | 0 | 10 | 0 | 0 | 0 | 40 | 0 | 50 | Plant response rating, Wheat [8, 12]: 0; Plant response rating, Wheat [8, 13]: 0; Plant response rating, Pigweed [9, 14]: 0; Plant response rating, Pigweed [9, 15]: 20; Pigweed plant response rating [9, 16]: 0; Plant response rating, Pigweed [9, 17]: 30; Plant response rating, Corn (corn (Zea mays); [12]): 0; Plant response rating, Corn (corn (Zea mays); [13]): 0; Plant response rating, Ragweed [10, 14]: 0; Plant response rating, Ragweed [10, 15]: 0; Ragweed plant response rating [10, 16]: 0; Plant response rating, Ragweed [10, 17]: 0; Plant response rating, Foxtail, Giant [11, 14]: 0; Plant response rating, Foxtail, Giant [11, 15]: 20; Foxtail, Giant plant response rating [11, 16]: 0; Plant response rating, Foxtail, Giant [11, 17]: 30
2 | CC(=O)Oc1ccc2cccc(-c3c(OC(C)=O)c(C)nn(C)c3=O)c2c1 [Compound 124] | 0 | 0 | 0 | 0 | 0 | 0 | 0 | 30 | 0 | 0 | 0 | 30 | 0 | 0 | 0 | 20 | 20 | 30 | 0 | 0 | Plant response rating, Wheat [8, 12]: 0; Plant response rating, Wheat [8, 13]: 0; Plant response rating, Pigweed [9, 14]: 0; Plant response rating, Pigweed [9, 15]: 0; Pigweed plant response rating [9, 16]: 0; Plant response rating, Pigweed [9, 17]: 0; Plant response rating, Corn (corn (Zea mays); [12]): 0; Plant response rating, Corn (corn (Zea mays); [13]): 0; Plant response rating, Ragweed [10, 14]: 0; Plant response rating, Ragweed [10, 15]: 0; Ragweed plant response rating [10, 16]: 0; Plant response rating, Ragweed [10, 17]: 0; Plant response rating, Foxtail, Giant [11, 14]: 0; Plant response rating, Foxtail, Giant [11, 15]: 0; Foxtail, Giant plant response rating [11, 16]: 0; Plant response rating, Foxtail, Giant [11, 17]: 0
